From US7179801B2, “Cephem compounds” (Astellas Pharma Inc., priority 2001, dated 2007)
Values after ≈ are worked out from the molar mass of the structure shown.

Test system: Pseudomonas aeruginosa FP 2056
Assay: In vitro antibacterial activity (MIC), two-fold agar-plate dilution method
Format: cell-based
Conditions: FP2056; test strain Pseudomonas aeruginosa FP 2056; heart infusion agar, 37° C. for 20 hours; read-out: MIC (minimal inhibitory concentration)
Procedure: In vitro antibacterial activity was determined by the two-fold agar-plate dilution method as described below. One loopful of an overnight culture of each test strain in Trypticase-soy broth (10^6 viable cells per ml) was streaked-on heart infusion agar (HI-agar) containing graded concentrations of representative test compound, and the minimal inhibitory concentration (MIC) was expressed in μg/ml after incubation at 37° C. for 20 hours.

Compound: Cn1c(N)c(CCCN)c[n+]1CC1=C(C(=O)[O-])N2C(=O)[C@@H](NC(=O)/C(=N\OC(C)(C)C(=O)O)c3nsc(N)n3)[C@H]2SC1 [Compound (a), 7β-[(Z)-2-(5-amino-1,2,4-thiadiazol-3-yl)-2-(1-carboxy-1-methylethoxyimino)acetamido]-3-[3-amino-4-(3-aminopropyl)-2-methyl-1-pyrazolio]methyl-3-cephem-4-carboxylate]
- MIC: 1 mg/L (≈ 1.61 µM)

Compound: Cn1c(N)c(CCN)c[n+]1CC1=C(C(=O)[O-])N2C(=O)[C@@H](NC(=O)/C(=N\OC(C)(C)C(=O)O)c3nsc(N)n3)[C@H]2SC1 [Compound (b), 7β-[(Z)-2-(5-amino-1,2,4-thiadiazol-3-yl)-2-(1-carboxy-1-methylethoxyimino)acetamido]-3-[3-amino-4-(2-aminoethyl)-2-methyl-1-pyrazolio]methyl-3-cephem-4-carboxylate]
- MIC: 0.5 mg/L (≈ 0.821 µM)
